Some results are limits rather than exact numbers.

The conditions of this series: rat; liver microsomes; pH 7.4; 15.0 min; 1.0 µM. For orientation: Liver microsomes are vesicles of endoplasmic reticulum, rich in cytochrome P450 enzymes.
As for `O=C(O)c1ccnc2cc(C(OCCN3CCCCC3)c3ccccc3Cl)[nH]c12` (stereo not given), the half-life (usually the time needed for the level to fall by half in the phase considered) is above 30 min.
The result for `COc1ccc(-c2ccc3c(N4CCOC[C@@H]4C)nc(N4CCOC[C@@H]4C)nc3n2)cc1CO` reads above 30 min; that for `Cc1ccc(S(=O)(=O)Nc2cccc(C(=O)Nc3nc(-c4ccccc4)cs3)c2)cc1`, 16 min; that for `O=C(Nc1ccc([N+](=O)[O-])cc1Cl)c1cc(Cl)ccc1O`, above 30 min.
The same measure for `COCCNC(=O)c1ccc(Cn2c(=S)[nH]c3cc4c(cc3c2=O)OCO4)cc1`: above 30 min; for `Nc1c(C(=O)Nc2ccc(Cl)cc2)sc2nc3c(cc12)N1CCC3CC1`: 24 min; for `CCC(CC)C(=O)NC[C@@H]1C=C(C)[C@H](Cc2nc3c(C)cccc3[nH]2)C[C@H]1C(C)C`: 1.12 min.
The same measure for `Cn1c2cc(S(C)=O)sc2c2cnn(Cc3cccc(N)c3)c(=O)c21` (stereo not given): above 30 min; for `COc1ccc(NC(=O)c2[nH]c(C)cc2C)cc1S(=O)(=O)Nc1ccc(Br)cc1`: above 30 min; for `Cc1cccc(N2CCN(C(=O)c3ccc4c(c3)C(O)CCCCCN4C)CC2)c1` (stereo not given): 1.28 min.
On to `CC[C@H]1CN2CCc3cc(OC)c(OC)cc3[C@@H]2C[C@@H]1C[C@H]1NCCc2cc(OC)c(OC)cc21`, for which the half-life was above 30 min.
`O=C(NCCCn1ccnc1)c1nc(-c2ccccc2)cc2[nH]ccc12` yielded a half-life above 30 min.
In turn, `CC1CC(C)(C)N(C(=O)CN2C(=O)c3ccccc3C2=O)c2ccccc21` (stereo not given) had a half-life of 1.56 min.
The same measure for `O=C(Nc1ccc(S(=O)(=O)N2CCN(Cc3ccccc3)CC2)cc1)c1cnccn1`: 1.8 min.
The result for `CCc1ccc(OC(C)C(=O)N2CCC(c3nc4ccccc4o3)CC2)cc1` (stereo not given) reads 1.32 min.
The result for `Cc1c(-c2nsc(NC(=O)c3cccc(Cl)c3)n2)nnn1-c1ccccc1C(F)(F)F` reads above 30 min.
For the compound `O=C(Nc1ccccc1O)c1ccc(NC(=O)C2CC2)cc1`, the half-life was above 30 min.
The result for `OCCNc1ncnc2c1ncn2[C@@H]1O[C@@H](CO)[C@H](O)[C@@H]1O` reads above 30 min; that for `c1cnc(N2CCN(Cc3c[nH]c4ccccc34)CC2)nc1`, 1.6 min; that for `CCOC(=O)c1cc(C)sc1NC(=O)c1ccc(Cl)s1`, 5.49 min.
The same measure for `O=C(Nc1cncc(Cc2ccccc2)c1)c1ccc(-c2cccc([N+](=O)[O-])c2)o1`: 2.4 min.
The result for `COc1cccc(CNC(=O)c2ccc(N3CCCC3)c(NC(=O)Nc3ccccc3F)c2)c1` reads 1.7 min.
For `COc1ccc(NC2CCCN(C(=O)CCc3ccccc3F)C2)cc1` (stereo not given), the half-life was 2.36 min.
The result for `CCOC(=O)C1=C(CN(CC)Cc2ccccc2)NC(=O)NC1c1ccc(OC(C)C)cc1` (stereo not given) reads 1.2 min.
The same measure for `COC(=O)c1cccc(NC(=O)c2cnc(-c3ccc(F)cc3)nc2-c2ccncc2)c1`: 9.09 min.
The same measure for `CC(C)(C#N)c1ccc(N2C(=O)OCc3cnc4ccc(-c5cnc6ccccc6c5)cc4c32)cc1`: 2.84 min; for `O=C1Nc2ccccc2C12CC2c1cc(Cl)c(O)c(Cl)c1` (stereo not given): 9.8 min.
`Cc1ccc(NC(=O)c2c(N3CCCC3=O)c3cc(C)ccc3n2C)c(C)c1`: the half-life was 1.31 min.
The result for `N#Cc1ccc(N2N=C3c4ccc(C(=O)O)cc4CC[C@@H]3[C@@H]2C2CCCC2)cc1Cl` reads above 30 min.
The result for `Cc1c([C@@H](C)C2NC[C@H](C)C[C@@H]2O)ccc2c1C[C@@H]1[C@H]2CC=C2C[C@@H](O)CC[C@@]21C` (stereo not given in full) reads above 30 min; that for `CN1CCN(c2ccc(Nc3c4ccccc4nc4ccccc34)cc2)CC1`, 1.72 min.
The compound `CCC(=O)NC(c1ccc(OC)cc1)c1cc(Cl)c2cccnc2c1O` (stereo not given) registered a half-life of 4.41 min.
The same measure for `CN(C(=O)c1cn2c(-c3ccc(C(F)(F)F)cc3)cnc2cn1)c1ccc(C#N)cc1`: above 30 min.
The same measure for `Clc1ccc2ncc(-c3cccc(NC4CCNCC4)n3)n2c1`: above 30 min.
The result for `Fc1cnc(-c2ccccc2C(F)F)nc1NCC1CCN(c2cnccn2)CC1` reads 3.4 min.
Compound `Cc1sc(NC(=O)Cc2ccc3c(c2)OCO3)nc1-c1ccc2c(c1)CCN2C(=O)c1ccccc1Cl` came in with a half-life of 24 min.
The same measure for `O=C1Nc2cc(Cl)ccc2/C1=C\c1cc(Cl)c(O)c(Cl)c1`: above 30 min.
In turn, `C[C@@H](c1ccc2nccn2c1)n1nnc2ncc(-c3cnn(C)c3)nc21` displayed a half-life above 30 min.
The same measure for `CN1CCN(c2ccc(Nc3nc(-c4ccncc4)nc4ccccc34)cc2F)CC1`: 8.8 min; for `Cc1ccccc1C(C(=O)NC1CCCCC1)N(C(=O)Cn1ccnc1C)c1cccc(F)c1` (stereo not given): 5.62 min.
The result for `COc1ccc(-n2nc(C3CCN([S+](=O)([O-])c4cccc(C(F)(F)F)c4)CC3)[nH]c2=O)cc1` reads 15 min; that for `Cc1ccccc1C(=O)n1ccc2cc(-c3nc(NC(=O)Cc4ccc5c(c4)OCO5)sc3C)ccc21`, above 30 min.
The same measure for `C[S+](=O)([O-])c1ccc(-c2nc(C(=O)NCc3cccnc3)n3ccccc23)cc1`: above 30 min; for `Cc1cc(C)nc(NC(=S)N2CCN(c3cccc(C(F)(F)F)n3)CC2)c1`: 28 min; for `Brc1ccc(-c2csc(N3CCNCC3)n2)cc1`: 3.31 min.
The compound `O=C(Nc1ccccc1F)c1nc(S(=O)(=O)Cc2ccccc2F)ncc1Cl` returned a half-life of 1.49 min.
The compound `Cc1ccc(Nc2nc(-c3ccncc3)nc3ccccc23)cc1F` displayed a half-life of 12 min.
`Cc1cc(C)nc(N2CCCC(C(=O)NCCc3ccc(F)cc3)C2)n1` (stereo not given) displayed a half-life of 1.6 min.
The result for `O=C(Nc1ccc(F)c(C(F)(F)F)c1)Nc1nnc(-c2ccncc2)s1` reads above 30 min.
The result for `C=C1C(=O)OC2C1CCC(C)C1(O)C=CC(=O)C21C` (stereo not given) reads above 30 min; that for `O=C(NCc1ccccc1)c1cn2cc(-c3ccccc3)sc2n1`, 24 min; that for `CNc1oc(-c2cccc3ccccc23)nc1C(=O)OC`, above 30 min.
The result for `Cc1ccc(-n2ncc3c(NCCCn4ccnc4)ncnc32)cc1Cl` reads 22.7 min.
In the case of `N#CC1CCN(c2nc(-c3ccc(Br)cc3)cs2)CC1`, the half-life came to 24.7 min.
The result for `O=C(c1ccc2ccccc2c1)N1CCN(c2ccc(O)cc2)CC1` reads above 30 min; that for `NC1(c2ccc(NC(=O)c3ccnc(-c4cc(C(=O)O)ccn4)c3)cc2)CC1`, above 30 min.
The result for `Fc1cc(-c2nc(Nc3ccc(F)c(F)c3)c3ccccc3n2)ccn1` reads above 30 min.
The result for `COc1ccc(-n2nc(C3CCCN([S+](=O)([O-])c4cccc(C(F)(F)F)c4)C3)[nH]c2=O)cc1` (stereo not given) reads 6.33 min.
Compound `COc1cccc(CNc2ccc(S(=O)(=O)Nc3nc4ccccc4s3)cc2)c1O` yielded a half-life above 30 min.
The same measure for `Cc1nnc(-c2ccccc2C(C)C)nc1NCc1ccc(-c2cccnc2)cc1`: 5.8 min; for `CC1=C(C(=O)Nc2nncs2)C(c2nn(C)cc2Cl)N=C(Nc2nc3ccccc3o2)N1` (stereo not given): above 30 min; for `COc1cc(OC)cc(-c2csc(N3CCC(C(N)=O)CC3)n2)c1`: 2.09 min.
The result for `Fc1ccc(-c2csc3ncnc(NCc4ccc5c(c4)OCO5)c23)cc1` reads 19.2 min.
The same measure for `Cc1noc(C)c1C(=O)N1CCC2(CC1)CCN(C(c1ccccc1)c1ccccc1)CC2`: 9.4 min; for `O=C(c1nc(-c2cccnc2)c2ccccn12)N1CCOCC1`: above 30 min; for `COc1cc(/C=C2\C(=O)Nc3ccccc32)ccc1O`: 12 min.
For `COc1ncc(-c2ccc3c(Nc4cc(Oc5cc(F)cc(F)c5)cc(C(=O)O)c4)c(S(=O)(=O)NC4CC4)cnc3c2)c(OC)n1`, the half-life worked out at 9.87 min.
The result for `COc1ccc(NC(=O)c2[nH]c(C)c(C(C)=O)c2C)cc1S(=O)(=O)N1CCCCC1` reads 6 min; that for `CCCN1CNc2c(c(=O)[nH]c(=S)n2CCc2cccc(Cl)c2Cl)C1`, 2.47 min; that for `COc1cccc(C(=O)NCCSc2c(-c3ccc(F)cc3)[nH]c3ccccc23)c1OC`, 1.26 min.
The same measure for `Nc1ncc(S(=O)(=O)N2CCN(c3ccccc3)CC2)cn1`: 1.3 min; for `C[C@@]1(O)[C@H](O)[C@@H](CO)O[C@H]1n1ccc(N)nc1=O`: above 30 min; for `Fc1ccc(Nc2nc(-c3ccnc4ccccc34)nc3ccccc23)cc1F`: 27 min.
For the compound `COc1cccc(NS(=O)(=O)c2ccc(NCc3cccc(OC)c3O)cc2)c1`, the half-life is 4 min.
The result for `Cn1cc(C2=C(c3cn(C)c4cc([N+](=O)[O-])ccc34)C(=O)NC2=O)c2ccccc21` reads 4.05 min; that for `NC(=O)C1CCN(c2ncc(-c3cccc(N4CCOCC4)c3)s2)CC1`, above 30 min; that for `COc1ccc(C(=O)N2CCCC(c3nn(-c4ccc(OC)cc4)c(=O)[nH]3)C2)cc1` (stereo not given), above 30 min.
Take `O=C(Nc1nc(-c2ccccn2)cs1)c1cccc(S(=O)(=O)N2CCOCC2)c1`: the half-life is 8.47 min.
The same measure for `Cn1c(=O)c2c(nc(Cl)n2Cc2ccc(Cl)cc2)n(C)c1=O`: above 30 min; for `COC1C(OC(=O)c2ccc(C)[nH]2)C(O)C(Oc2ccc3c(O)c(NC(=O)c4ccc(O)c(CC=C(C)C)c4)c(=O)oc3c2Cl)OC1(C)C` (stereo not given): 28.3 min.
The result for `CC(=O)c1c(C)[nH]c(C(=O)Nc2cccc([S+](=O)([O-])Nc3cccnc3)c2)c1C` reads 17 min; that for `Cc1noc(C)c1-c1ccc2ncnc(NCc3ccc4[nH]ccc4c3)c2c1`, 3.2 min; that for `CNc1nc2c(s1)C(c1ccccc1F)CC(=O)N2` (stereo not given), 3.51 min.
The result for `COc1ccc2[nH]c(=O)c(-c3noc(-c4ccc(F)cc4)n3)cc2c1` reads above 30 min; that for `Cc1ccccc1C(=O)N1CCc2cc(-c3nc(NC(=O)Cc4ccc5c(c4)OCO5)sc3C)ccc21`, 15.5 min.
`C[C@@H]1CC(=O)Nc2cccc(-c3cnn(C(C)(C)C)c3)c2N1` returned a half-life above 30 min.
Turning to `COc1ccc(C2=Nc3ccc(C)cc3C(c3ccccc3)N2CC(=O)NN)cc1` (stereo not given), the half-life was determined as 5.3 min.
The result for `O=C(Nc1ccc(S(=O)(=O)Nc2nccs2)cc1)c1ccc2ccccc2c1` reads above 30 min.
`Cc1cccc(C)c1NC(=O)c1nc(SC(C)C)ncc1Cl`: the half-life amounted to 1.38 min.
In the case of `CN(C)c1cccc(-c2nnc(N3CCC(C(N)=O)CC3)s2)c1`, the half-life is 15.7 min.

These data come from PubChem BioAssay AID1508591.
